From EP0626016B1, “[…] […]” (BRITISH TECHNOLOGY GROUP LIMITED, priority 1992, dated 1993)

Target: T1, HRP Type VIA (Armoracia rusticana, UniProt P00433)
T1 sequence (P00433 31-338): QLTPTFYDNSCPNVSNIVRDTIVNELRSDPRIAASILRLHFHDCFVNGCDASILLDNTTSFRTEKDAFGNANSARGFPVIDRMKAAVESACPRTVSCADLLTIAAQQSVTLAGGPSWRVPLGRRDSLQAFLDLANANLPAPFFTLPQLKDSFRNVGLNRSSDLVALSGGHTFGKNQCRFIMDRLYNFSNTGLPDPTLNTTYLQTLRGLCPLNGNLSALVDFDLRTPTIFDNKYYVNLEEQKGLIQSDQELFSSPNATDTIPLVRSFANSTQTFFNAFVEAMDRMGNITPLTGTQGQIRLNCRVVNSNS
Assay: Effect of PBBA amount on the luminol or isoluminol-H2O2-HRP chemiluminescent reaction (Example 1, part 1)
Assay type: biochemical, horseradish
Conditions: for Signal (no HRP) / Signal (with HRP): after 5 minutes
Description: PBBA was added in various concentrations (range 0.05µg to 0.5µg) to a luminol-H2O2 reaction in the presence and absence of HRP. […] These two solutions were combined and protected from light. The luminol-hydrogen peroxide reagent (100µl of a 1:10 dilution) was added to a cuvette together with either 10µl of HRP Type VI A (HRP, Sigma Chemical Co., 1:50,000 dilution) or as a control 10µl of Tris Buffer (0.1mol/l, pH 8.6), and various amounts of PBBA (Aldrich Chemical Co.), range 0.05µg-0.5µg in 0.1mol/l Tris, pH 8.6). The reagents were mixed and the light emission recorded after 5 minutes on a Berthold Biolumat LB9500C.
This experiment was repeated, replacing the luminol with isoluminol. […]

light emission in the luminol-HRP-peroxidase reaction (Column (a), result in words): enhances the light emission | Signal: Background ratio (Isoluminol, PBBA 0.05 µg): 2.1 | Signal (no HRP) (Isoluminol, PBBA 0.05 µg): 7664 | Signal (with HRP) (Isoluminol, PBBA 0.05 µg): 15,772 | Signal: Background ratio (Isoluminol, PBBA 0.1 µg): 2.7 | Signal (no HRP) (Isoluminol, PBBA 0.1 µg): 6114 | Signal (with HRP) (Isoluminol, PBBA 0.1 µg): 16,553 | Signal: Background ratio (Isoluminol, PBBA 0.2 µg): 11.9 | Signal (no HRP) (Isoluminol, PBBA 0.2 µg): 5736 | Signal (with HRP) (Isoluminol, PBBA 0.2 µg): 68,282 | Signal: Background ratio (Isoluminol, PBBA 0.3 µg): 110.4 | Signal (no HRP) (Isoluminol, PBBA 0.3 µg): 5613 | Signal (with HRP) (Isoluminol, PBBA 0.3 µg): 619,880 | Signal: Background ratio (Isoluminol, PBBA 0.4 µg): 147.0 | Signal (no HRP) (Isoluminol, PBBA 0.4 µg): 5278 | Signal (with HRP) (Isoluminol, PBBA 0.4 µg): 775,965 | Signal: Background ratio (Luminol, PBBA 0.05 µg): 6.1 | Signal (no HRP) (Luminol, PBBA 0.05 µg): 16,556 | Signal (with HRP) (Luminol, PBBA 0.05 µg): 101,227 | Signal: Background ratio (Luminol, PBBA 0.1 µg): 6.7 | Signal (no HRP) (Luminol, PBBA 0.1 µg): 16,065 | Signal (with HRP) (Luminol, PBBA 0.1 µg): 108,213 | Signal: Background ratio (Luminol, PBBA 0.2 µg): 8.1 | Signal (no HRP) (Luminol, PBBA 0.2 µg): 13,890 | Signal (with HRP) (Luminol, PBBA 0.2 µg): 112,644 | Signal: Background ratio (Luminol, PBBA 0.3 µg): 11.2 | Signal (no HRP) (Luminol, PBBA 0.3 µg): 10,899 | Signal (with HRP) (Luminol, PBBA 0.3 µg): 122,116 | Signal: Background ratio (Luminol, PBBA 0.4 µg): 12.5 | Signal (no HRP) (Luminol, PBBA 0.4 µg): 10,706 | Signal (with HRP) (Luminol, PBBA 0.4 µg): 133,401 | Signal: Background ratio (Luminol, PBBA 0.5 µg): 16.9 | Signal (no HRP) (Luminol, PBBA 0.5 µg): 8,963 | Signal (with HRP) (Luminol, PBBA 0.5 µg): 151,572
Compound: OB(O)c1ccc(Br)cc1 [PBBA, para-bromophenylboronic acid]
background level of luminescence (Column (b), result in words): reduces the background level of luminescence
